These results are taken from paper PMC7948405, “Small-molecule control of neurotransmitter sulfonation” (The Journal of Biological Chemistry, 2020).

For test [1], the target named is T1, SULT1A3 (Homo sapiens, UniProt P0DMM9).
T1 construct: E. coli–optimized SULT coding regions were inserted into a pGEX-6P expression vector; N-His/GST/MBP triple tag (PreScission-cleavable) (N, cleaved yes); made in house; host or cells: E. coli BL21(DE3)
Also noted: method as in PMID 30545938. Conditions: saturating inhibitor, cited from earlier work.

Test [2] concerns the target T1, SULT1A3. As to the kind of experiment: Pre-steady-state (stopped-flow fluorescence) binding of PAP to SULT1A3 complexes. Particulars: for Kd: read-out: Kd (koff/kon). The source says: Figure 4 The inhibition mechanism. A, equilibrium binding. Binding was monitored via ligand-induced changes in SULT1A3 intrinsic fluorescence (λex = 290 nm, λem = 335 nm). […] Each dot represents the average of three independent titrations. Lines passing through the data represent the outcomes predicted by least-squares fitting of the averaged data to a single-binding-site model. B, representative PAP-binding reaction. PAP binding was monitored using a stopped-flow fluorimeter (λex = 290 nm, λem ≥ 330 nm (cutoff filter)). Reactions were initiated by rapidly mixing (1:1 v/v) a solution containing SULT1A3 (30 nM, dimer), CMP13 (1.0 μM, 100 × Kd), Tam (160 μM, 200 × Kd), KPO4 (50 mM), pH 7.5, 25(±2) °C, with a solution that was identical except that it lacked SULT1A3 and contained PAP (2.0 μM). The average of five independent progress curves shown and the kobs was obtained by fitting the data to a single exponential. C, pre–steady-state binding. PAP binding was monitored as described for panel B. Reactions were initiated by mixing (1:1 v/v) a solution containing SULT1A3 (30 nM, dimer), CMP13 [0 μM (black dots) or 1.0 μM, 100 × Kd (red and blue dots)], Tam [0 μM (black and blue dots) or 160 μM, 200 × Kd (red dots)], KPO4 (50 mM), pH 7.5, 25(±2) °C, with a solution that was identical except that it lacked SULT1A3 and contained PAP at twice the indicated concentrations. Each kobs value was determined in triplicate, and the averaged values are shown. kon and koff are given, respectively, by the slopes and intercepts obtained from linear least-squares fitting of the kobs vs [PAP] plot. PAP, 3′-phosphoadenosine-5′-phosphate; SULT1A3, sulfotransferase 1A3; Tam, 4-hydroxy-tamoxifen.
To resolve this uncertainty, PAP on- and off-rate constants for a series of open and closed complexes were determined using stopped-flow fluorescence. A representative binding reaction can be seen in Fig. 4B. The binding reactions were pseudo-first order in [PAP], and kobs values were obtained by fitting reaction progress curves to a single-exponential equation. On- and off-rate constants (see Table 3) are given by the plot slopes and intercepts.
Pre–steady-state binding of PAP to SULT1A3 was monitored via ligand-induced changes in SULT1A3 fluorescence using an Applied Photophysics SX20 stopped-flow spectrofluorometer. Fluorescence was measured at λex = 290 nm and λem ≥ 330 nm (using a cutoff filter). […] All reactions were pseudo first order with respect to [PAP]. kobs values, determined in triplicate at each PAP concentration, were obtained by least-squares fitting the average of five progress curves to a single-exponential equation. kon and koff, obtained by linear least-squares fitting, are given by the slopes and intercepts of four-point kobs-vs-[PAP] plots.

The target of test [3] is T1, SULT1A3. As to the kind of experiment: Equilibrium binding of PAP to SULT1A3 complexes (intrinsic fluorescence). How it is done:
CMP13 binding to SULT1A3 was monitored via binding-induced changes in SULT1A3 intrinsic fluorescence (λex= 290 nm, λem= 335 nm ([17])). […] PAP binding was determined using the same protocol except that [PAP] was varied and CMP13 was 1.0 μM (100 × Ki). Titrations were performed in triplicate. Data were averaged and least-squares fit using a model that assumes a single binding site per monomer.

Setting [4] is: PAP binding to complex E·CMP13, CMP13 1.0 μM.
Setting [5] is: PAP binding to complex E·CMP13·Tam, CMP13 1.0 μM, Tam 160 μM.
[6] abbreviates: PAP binding to complex E·CMP13·Tam.

Molecules are shown by their SMILES.

T1 sequence (P0DMM9 whole entry): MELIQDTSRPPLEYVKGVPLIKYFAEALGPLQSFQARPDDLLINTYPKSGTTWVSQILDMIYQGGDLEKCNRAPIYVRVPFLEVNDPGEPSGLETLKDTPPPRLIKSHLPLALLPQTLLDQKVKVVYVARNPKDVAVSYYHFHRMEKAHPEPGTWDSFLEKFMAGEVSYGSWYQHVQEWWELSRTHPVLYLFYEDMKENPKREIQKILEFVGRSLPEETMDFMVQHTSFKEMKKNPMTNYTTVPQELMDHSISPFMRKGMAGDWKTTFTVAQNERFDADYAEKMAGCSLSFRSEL

As to `CC(C)Cc1ccc2cc(CO)ccc2n1` [CMP8], the “% Inhibition at saturation” value on SULT1A3 [1] (in vitro) is 54 (3) %. On SULT1A3 [1], the “factor by which SULT1A3 turnover is reduced at saturation” value is listed as 2 and the “turnover at saturation as % of that seen in absence of inhibitor” value was 46%.

For `Nc1ncnc2c1ncn2[C@@H]1O[C@H](COP(=O)(O)O)[C@@H](OP(=O)(O)O)[C@H]1O` [PAP, 3′-phosphoadenosine-5′-phosphate], the koff on SULT1A3 [2] (PAP binding to complex E) was found to be 2.5 s⁻¹; on SULT1A3 [2] (setting [4]), 0.18 s⁻¹; at SULT1A3 [2] (setting [5]), 2.3 s⁻¹. Also, the kon at SULT1A3 [2] (PAP binding to complex E) was determined as 6.9e+06 M⁻¹ s⁻¹; on SULT1A3 [2] (setting [4]), 6.6e+06 M⁻¹ s⁻¹; on SULT1A3 [2] (setting [5]), 6.5e+06 M⁻¹ s⁻¹. In addition, the Kd on SULT1A3 [2] (PAP binding to complex E) turned out to be 360 nM; on SULT1A3 [2] (PAP binding to complex E·CMP13) it was 29 nM; on SULT1A3 [2] (setting [6]), 350 nM; at SULT1A3 [3] (PAP binding to complex E), 320 nM; on SULT1A3 [3] (setting [4]), 31 nM; on SULT1A3 [3] (setting [6]), 350 nM.
